Data taken from PubChem BioAssay (NCI).
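Grown in 96-well plates, cells were treated for 48 hours with each compound at five concentrations. Insufficient inhibition: endpoint recorded as highest concentration tested. At the TGI there is no net growth.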

Columns and labels:
Assay in all cases: NCI anticancer screen, dose series, 48 h
A549 NSCLC = tested on: A549 NSCLC
786-0 renal = tested on: 786-0 renal
HOP-62 NSCLC = tested on: HOP-62 NSCLC
CCRF-CEM leukemia = tested on: CCRF-CEM leukemia
ACHN renal = tested on: ACHN renal
SF-539 CNS = tested on: SF-539 CNS
HCT-116 colon = tested on: HCT-116 colon
IGROV1 ovarian = tested on: IGROV1 ovarian
EKVX NSCLC = tested on: EKVX NSCLC
SF-268 CNS = tested on: SF-268 CNS
SW-620 colon = tested on: SW-620 colon
SNB-19 CNS = tested on: SNB-19 CNS
T-47D breast = tested on: T-47D breast
NCI-H23 lung = tested on: NCI-H23 lung
SF-295 CNS = tested on: SF-295 CNS
NCI-H226 lung = tested on: NCI-H226 lung
COLO 205 colon = tested on: COLO 205 colon
KM12 colon = tested on: KM12 colon
NCI-H460 lung = tested on: NCI-H460 lung
HCT-15 colon = tested on: HCT-15 colon
UO-31 renal = tested on: UO-31 renal
M14 melanoma = tested on: M14 melanoma
OVCAR-5 ovarian = tested on: OVCAR-5 ovarian
A498 renal = tested on: A498 renal
MALME-3M melanoma = tested on: MALME-3M melanoma
RPMI-8226 leukemia = tested on: RPMI-8226 leukemia
OVCAR-4 ovarian = tested on: OVCAR-4 ovarian
CAKI-1 renal = tested on: CAKI-1 renal
RXF 393 renal = tested on: RXF 393 renal
NCI-H522 lung = tested on: NCI-H522 lung
SK-MEL-2 melanoma = tested on: SK-MEL-2 melanoma
MCF7 breast = tested on: MCF7 breast
LOX IMVI melanoma = tested on: LOX IMVI melanoma
SK-MEL-5 melanoma = tested on: SK-MEL-5 melanoma
HS 578T breast = tested on: HS 578T breast
MDA-MB-435 = tested on: MDA-MB-435
DU-145 prostate = tested on: DU-145 prostate
HT29 colon = tested on: HT29 colon
SK-OV-3 ovarian = tested on: SK-OV-3 ovarian
SK-MEL-28 melanoma = tested on: SK-MEL-28 melanoma
NCI/ADR-RES ovarian = tested on: NCI/ADR-RES ovarian
TK-10 renal = tested on: TK-10 renal
BT-549 breast = tested on: BT-549 breast
HCC-2998 colon = tested on: HCC-2998 colon
UACC-62 melanoma = tested on: UACC-62 melanoma
MDA-MB-231 breast = tested on: MDA-MB-231 breast
UACC-257 melanoma = tested on: UACC-257 melanoma
OVCAR-8 ovarian = tested on: OVCAR-8 ovarian
MDA-N = tested on: MDA-N
U251 CNS = tested on: U251 CNS
OVCAR-3 ovarian = tested on: OVCAR-3 ovarian
PC-3 prostate = tested on: PC-3 prostate
HOP-92 NSCLC = tested on: HOP-92 NSCLC
MOLT-4 leukemia = tested on: MOLT-4 leukemia
SN12C renal = tested on: SN12C renal
HL-60(TB) leukemia = tested on: HL-60(TB) leukemia
K-562 leukemia = tested on: K-562 leukemia
SNB-75 CNS = tested on: SNB-75 CNS

Measured: TGI

C=CCCCCOC1C=CC(OC(C)=O)C(COC(C)=O)O1 (stereo unspecified)
not listed: K-562 leukemia | SNB-75 CNS
> 100 µM: all other assays above

CCCCCCc1nn2c(-c3ccc(C)cc3)nnc2s1
not listed: CCRF-CEM leukemia | IGROV1 ovarian | NCI-H226 lung | MALME-3M melanoma | LOX IMVI melanoma | HCC-2998 colon | HOP-92 NSCLC | HL-60(TB) leukemia
> 100 µM: all other assays above
